Laboratory results taken from patent publication US20080139455A1, “COMPOUNDS AND METHODS OF TREATING METABOLIC SYNDROME AND INFLAMMATION” (Forbes Medi-Tech (Research), Inc., priority 2006, published 2008).

How the values were obtained:
SPT [1] = biological target: T1, SPT (Homo sapiens, UniProt O15269+O15270); test: Serine palmitoyltransferase activity, Assay C ([3H]serine incorporation into lipids, cell homogenates); assay type: biochemical; conditions: 37° C. for 20 min, at the doses indicated
T1 sequence (O15269 1-473): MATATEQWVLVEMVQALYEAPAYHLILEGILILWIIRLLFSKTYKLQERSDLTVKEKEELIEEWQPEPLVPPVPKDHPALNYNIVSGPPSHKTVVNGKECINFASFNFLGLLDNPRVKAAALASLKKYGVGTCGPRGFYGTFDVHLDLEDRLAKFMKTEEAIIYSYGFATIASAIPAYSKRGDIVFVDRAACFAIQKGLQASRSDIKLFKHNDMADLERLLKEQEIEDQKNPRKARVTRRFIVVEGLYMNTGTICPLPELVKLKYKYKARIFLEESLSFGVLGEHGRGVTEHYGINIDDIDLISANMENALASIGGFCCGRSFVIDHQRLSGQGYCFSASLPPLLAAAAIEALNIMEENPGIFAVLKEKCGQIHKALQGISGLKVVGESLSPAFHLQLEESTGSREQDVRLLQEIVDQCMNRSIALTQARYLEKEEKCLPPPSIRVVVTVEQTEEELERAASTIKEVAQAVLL
T1 sequence (O15270 1-562): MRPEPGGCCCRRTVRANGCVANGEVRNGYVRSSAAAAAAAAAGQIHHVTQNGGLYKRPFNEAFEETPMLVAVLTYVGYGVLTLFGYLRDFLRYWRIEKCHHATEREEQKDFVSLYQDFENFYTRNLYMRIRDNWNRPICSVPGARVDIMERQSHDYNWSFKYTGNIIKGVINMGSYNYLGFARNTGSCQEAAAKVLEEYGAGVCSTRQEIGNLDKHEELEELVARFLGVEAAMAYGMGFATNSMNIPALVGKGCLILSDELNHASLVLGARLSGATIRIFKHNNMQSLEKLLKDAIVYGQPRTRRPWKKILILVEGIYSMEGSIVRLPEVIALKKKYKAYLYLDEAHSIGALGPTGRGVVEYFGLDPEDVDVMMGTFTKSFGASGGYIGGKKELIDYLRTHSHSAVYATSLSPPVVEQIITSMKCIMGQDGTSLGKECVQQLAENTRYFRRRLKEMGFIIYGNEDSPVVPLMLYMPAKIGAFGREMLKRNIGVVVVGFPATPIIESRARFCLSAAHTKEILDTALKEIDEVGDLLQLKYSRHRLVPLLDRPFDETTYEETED
Method: An alternative assay for evaluating inhibition of SPT, the enzyme present in commonly cultured cells, is performed with CHO cells or a human cell line. Cells are washed three times with ice-cold phosphate-buffered saline (PBS). A total of 0.5 mL of lysis buffer [50 mM Hepes (pH 8.0) containing 5 mM ethylenediaminetetraacetic acid (EDTA) and 5 mM dithiothreitol (DTT)] is added to each dish. The cells are scraped using a rubber policeman, and are then transferred to a test tube on ice. The cell suspension is sonicated three times for 5 s at 1-2 min intervals on ice. Protein concentrations in cell homogenates are measured using a Bradford protein assay kit (Bio-Rad). […] The radioactivity is measured with a LS6000TA liquid scintillation counter (Beckman). Nonspecific conversion of [^3H] serine to chloroform-soluble species is determined by performing the assay in the absence of palmitoyl CoA. […]
An alternative assay using a non-chlorinated solvent modification of the Blye and Dyer lipid extraction method reported in Smedes (Smedes, F. (1999) Analyst 124, 1711-18) is employed to evaluate exemplary compounds. […] An accurately measured portion of the organic layer (4.0 ml) is added to a scintillation vial with 1 ml of water. […] The amount of [^3H] serine radioactivity incorporated into lipids is quantified in a scintillation counter. […]

Rat pancreatic islets = test: Protection of islets by an SPT inhibitor (propidium iodide staining, flow cytometry); assay type: cell-based; conditions: 3 days
Method: Islet protection by an exemplary compound is evaluated in an assay according to Eitel, K, et al. Biochem. Biophys. Res. Commun. 299: 853-6 (2002), and results obtained in this assay are reported below in Table 4. Rat pancreatic islets are cultured with control medium (RPMI 1640 supplemented with 10% fetal bovine serum, antibiotics and made 8% in glucose) or in medium supplemented with I millimolar sodium palmitate (Fatty Acid Medium) during a period of 3 days. The culture medium is changed after 2 days to an identical composition culture medium with fresh inhibitor in the appropriate wells. Cells are stained with propidium iodide (PI), washed and propidium staining of cells (as a measure of cellular DNA content) is assessed by flow cytometry. The percentage of cells having less than the normal amount of PI staining is considered to be apoptotic cells (Eitel, K, et al. (2002)).

SPT [2] = biological target: T1, SPT; conditions: literature; cited from earlier work
mice = conditions: literature, cited from earlier work; for protective effect / prevention of progression of emphysema: VEGF receptor blockade model
ApoE knockout mice = conditions: literature; cited from earlier work
[3] = tested on: diabetic Zucker fatty rat model; conditions: literature; cited from earlier work

Row | SMILES | inhibition of SPT ([3H] serine radioactivity incorporated into lipids) (SPT [1]) | activity against / inhibition of SPT (SPT [2]) | protective effect / prevention of progression of emphysema (mice) | other results
1 | CCCCCCCOc1cccc(CCC(O)C(O)C(N)C(=O)O)c1 (stereo not shown) [Compound 12] | moderate activity |  |  | protection of islet cells from fatty acid treatment (apoptotic cells by PI staining) (Rat pancreatic islets; medium with sodium palmitate (Fatty Acid Medium)): fully protect cells from the fatty acid treatment; benefit in comparison to treatment with the control medium (apoptotic cells by PI staining) (Rat pancreatic islets; versus control medium): imparts a benefit in comparison to treatment with the control medium
2 | CCCCCCCCc1ccc(CCC(N)(CO)CO)cc1 [FTY720] |  | do not inhibit SPT |  | 
3 | CCCCCCC(=O)CCCCCC/C=C/C[C@@H](O)[C@H](O)[C@@](N)(CO)C(=O)O [ISP-1] | potent but non-selective inhibition |  | very strong protective effect | IC50 for inhibition of SPT (SPT [2]): sub-nanomolar; atherosclerotic plaque (ApoE knockout mice): dramatic reduction in atherosclerotic plaque
4 | CCCCCCCCc1ccc(CCC(N)(CO)C(=O)O)cc1 (stereo not shown) [compound 2] |  | did not exhibit activity against SPT |  | 
5 | N[C@@H]1CON=C1O [cycloserine] |  | weak inhibition |  | beta cell protective effect [3]: ≈ 50%
6 | CCCC[C@@H](C)[C@@H](OC(=O)C[C@@H](CC(=O)O)C(=O)O)[C@H](C[C@@H](C)C[C@H](O)CCCC[C@@H](O)C[C@H](O)[C@H](C)N)OC(=O)C[C@@H](CC(=O)O)C(=O)O [fumonisin B1] |  |  | less effective | toxicity (mice; emphysema model, higher doses): some toxicity at higher doses
